From patent publication US20250099420A1, “SMALL MOLECULE MODULATORS OF GPR139 COMPLEX” (University of Florida Research Foundation, Incorporated, priority 2022, published 2025)
Where two headings read alike, the source gives them in different places.

What was measured:
parental HEK cells = experiment: HEK parental Agonist Counterscreen Assay (non-transfected cells); type: cell-based; conditions: for Averaged Max % Response (±St. Dev.): activity relative to known control
Text: The high control for the agonist counterscreen was Forskolin not acetylcholine.

GPR139 = molecular target: T1, GPR139 (Homo sapiens, UniProt Q6DWJ6); experiment: GPR139 Agonist titration / agonist counterscreen assay (calcium detection, HEK-GPR139 cells); type: cell-based; parameters: expressed in transfected cells; host or cells: HEK Aequorin cells, Maxcyte transient transfection; conditions: GPR139 Agonist Activity; for EC50: read-out: EC50; for Averaged Max % Response (±St. Dev.): activity relative to known control
T1 sequence (Q6DWJ6 1-353): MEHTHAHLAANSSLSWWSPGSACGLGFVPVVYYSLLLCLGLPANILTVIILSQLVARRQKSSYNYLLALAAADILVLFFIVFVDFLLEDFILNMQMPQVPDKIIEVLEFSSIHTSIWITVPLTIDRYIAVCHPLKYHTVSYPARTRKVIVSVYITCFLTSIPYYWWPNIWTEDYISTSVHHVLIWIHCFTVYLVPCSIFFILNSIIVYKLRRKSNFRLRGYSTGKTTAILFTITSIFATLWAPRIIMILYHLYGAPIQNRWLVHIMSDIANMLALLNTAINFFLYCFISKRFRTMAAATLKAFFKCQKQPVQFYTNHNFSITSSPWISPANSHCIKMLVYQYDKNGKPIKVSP
Description: GPR activity was assessed using a calcium detection assay. […] Negative control samples were treated with DMSO. […] Intracellular calcium was measured using Calcium 5.

[1] = HEK Agonist Activity section of Table 4 (parental HEK counterscreen)
[2] = Homo sapiens, HEK293, HEK Agonist Activity, parental non-transfected HEK cells
[3] = values printed in E-notation without unit
[4] = Homo sapiens, HEK293, HEK Agonist Activity section of Table 4 (parental HEK counterscreen)

| Compound | Lipophilic Efficiency (logD) (parental HEK cells; HEK Agonist Activity section) | Lipophilic Efficiency (logP) (parental HEK cells; HEK Agonist Activity section) | EC50 (parental HEK cells; [1]) | Averaged Max % Response (±St. Dev.) (parental HEK cells; HEK Agonist Activity section) | Efficiency Ligand (GPR139) | Hill Slope (GPR139) | Lipophilic Efficiency (logD) (GPR139) | Lipophilic Efficiency (logP) (GPR139) | EC50 (GPR139; HEK-GPR139 cells) | Averaged Max % Response (±St. Dev.) (GPR139) | Lipophilic Efficiency (logD) (GPR139; based on logD) | Lipophilic Efficiency (logP) (GPR139; based on logP) | Hill Slope (GPR139; fitted dose-response curve) | Efficiency Ligand (GPR139; ligand efficiency) | EC50 (parental HEK cells; [4]) | other results |
| --- | --- | --- | --- | --- | --- | --- | --- | --- | --- | --- | --- | --- | --- | --- | --- | --- |
| Cc1nn(-c2ccccc2)nc1C(=O)NNC(=O)CSCc1cccc2ccccc12 [SR-01000634249] | 1.65 | 1.65 | > 14.1 µM | 7.70 ± 7.23% | 0.26 | 0.69 | 2.57 | 2.57 | 1.7 µM | 89.30 ± 20.10% | – | – | – | – | – | – |
| COc1ccc(C2(C)NC(=O)C(CC(=O)NCCc3ccccc3)C2=O)cc1 (stereo not shown) [SR-01000918721] | – | – | – | – | – | – | – | – | – | 107.86 ± 14.78% | 5.70 | 5.70 | 0.48 | 0.38 | – | Lipophilic Efficiency (logD) (parental HEK cells; HEK Agonist Activity): 2.96; Lipophilic Efficiency (logP) (parental HEK cells; HEK Agonist Activity): 2.96; Averaged Max % Response (±St. Dev.) (parental HEK cells; HEK Agonist Activity): 9.27 ± 15.15%; EC50 (parental HEK cells; [2]): > 14.1 µM; EC50 (GPR139; [3]): 0.0256 µM |
| CCc1c(C2C(C(=O)OCc3ccccc3)=C(C)CC3=C2C(=O)CCC3)ccc(OC)c1OC (stereo not shown) [SR-01000406098] | 1.55 | 1.55 | – | 7.56 ± 6.15% | 0.24 | 1.97 | 2.46 | 2.46 | – | 80.99 ± 4.70% | – | – | – | – | > 11.5 µM | – |
| O=C(CCc1nc2ccccc2n1-c1ccccc1)NCCc1ccccc1 [SR-01000535824] | – | – | – | – | – | – | – | – | – | 136.02 ± 19.68% | 2.73 | 2.73 | – | 0.39 | – | Lipophilic Efficiency (logD) (parental HEK cells; HEK Agonist Activity): −0.133; Lipophilic Efficiency (logP) (parental HEK cells; HEK Agonist Activity): −0.133; Averaged Max % Response (±St. Dev.) (parental HEK cells; HEK Agonist Activity): 34.71 ± 16.19%; EC50 (parental HEK cells; [2]): > 12.1 µM |
| Cc1ccc(CN2CCN(CC(=O)N3CC(C)CC(C)C3)C2=O)cc1 (stereo not shown) [SR-01000150389] | 2.56 | 2.56 | > 14.1 µM | 0.25 ± 10.83% | – | – | – | – | – | 112.97 ± 21.84% | 4.43 | 4.43 | 0.95 | 0.38 | – | EC50 (GPR139; [3]): 0.189 µM |
| CCOC(=O)C1C2C=CC3(CN(C(C)c4ccc(Br)cc4)C(=O)C13)O2 (stereo not shown) [SR-01000114492] | 2.28 | 2.28 | > 14.1 µM | −1.32 ± 3.21% | 0.34 | 0.90 | 3.50 | 3.50 | 0.853 µM | 84.13 ± 7.28% | – | – | – | – | – | – |
| COc1ccc2c(c1)C[C@H](C(=O)Nc1ccc(-c3cn[nH]c3)cc1OCCN1CCCC1)NC2.O=C(O)C(F)(F)F.O=C(O)C(F)(F)F.O=C(O)C(F)(F)F [SR-00000007044] | 3.98 | 2.09 | > 14.1 µM | 26.95 ± 5.80% | 0.24 | 1.19 | 5.00 | 3.11 | 1.4 µM | 81.04 ± 10.01% | – | – | – | – | – | – |
| C=C(CC1C(=O)CC(c2ccccc2)(c2ccccc2)C1=O)C(C)CC1=CC=CC1 (stereo not shown) [SR-01000062305] | 1.70 | 1.70 | – | −4.71 ± 5.40% | 0.27 | – | 2.66 | 2.66 | – | 121.63 ± 9.56% | – | – | – | – | > 14.8 µM | – |
| O=C(Cn1ncc2c1-c1ccccc1OC2)Nc1ccc(CCO)cc1 [SR-01000098914] | 2.18 | 2.18 | – | 11.28 ± 8.03% | 0.34 | 0.93 | 3.66 | 3.66 | 0.468 µM | 97.42 ± 2.76% | – | – | – | – | > 14.1 µM | – |
| O=C(Cn1ncn2cccc2c1=O)NCCc1ccc(Cl)cc1 [SR-01000140172] | 3.41 | 3.41 | > 14.1 µM | 2.22 ± 10.07% | 0.40 | 0.89 | 5.11 | 5.11 | 0.278 µM | 113.63 ± 31.77% | – | – | – | – | – | – |
| CC12C=CC3(CN(Cc4ccccc4)C(=O)C3C1C(=O)NCC1COc3ccccc3O1)O2 (stereo not shown) [SR-01000582967] | 2.93 | 2.93 | > 13.1 µM | −6.63 ± 2.99% | 0.27 | 0.38 | 4.47 | 4.47 | 0.375 µM | 117.27 ± 2.34% | – | – | – | – | – | – |
| CC(Oc1ccccc1)C(=O)NCCn1ccc2ccccc21 (stereo not shown) [SR-01000124163] | 1.45 | 1.45 | – | −3.45 ± 3.02% | 0.36 | 1.37 | 2.59 | 2.59 | 1 µM | 90.02 ± 28.06% | – | – | – | – | > 14.1 µM | – |
| COCC(=O)Oc1c(Sc2c(F)c(F)c(F)c(F)c2F)c(C)nn1C(C)(C)C [SR-01000906953] | 1.23 | 1.23 | 5.7 µM | 192.43 ± 25.16% | – | – | – | – | – | 95.58 ± 3.98% | 3.16 | 3.16 | 1.02 | 0.36 | – | Hill Slope (parental HEK cells; HEK Agonist Activity section): 9.35; EC50 (GPR139; [3]): 0.0681 µM |
| Cc1c(Br)c([N+](=O)[O-])nn1CC(=O)NCCc1ccc(Cl)cc1 [SR-01000298170] | – | – | – | – | – | – | – | – | – | 119.00 ± 5.31% | 4.08 | 4.08 | 0.27 | 0.46 | – | Lipophilic Efficiency (logD) (parental HEK cells; HEK Agonist Activity): 1.44; Lipophilic Efficiency (logP) (parental HEK cells; HEK Agonist Activity): 1.44; Averaged Max % Response (±St. Dev.) (parental HEK cells; HEK Agonist Activity): 10.66 ± 2.50%; EC50 (parental HEK cells; [2]): > 14.1 µM; EC50 (GPR139; [3]): 0.0316 µM |
| Cc1ccc(NC(=O)NNC(=O)COc2ccc(Cl)cc2)c(C)c1 [SR-01000309617] | 1.74 | 1.67 | – | −3.26 ± 4.40% | – | – | – | – | – | 94.36 ± 3.49% | 3.88 | 3.82 | 0.63 | 0.41 | > 14.4 µM | – |
